According to publication PMC5306062, “Pharmacology and toxicology of the novel investigational agent Cantrixil (TRX-E-002-1)” (Cancer Chemotherapy and Pharmacology, 2016):

Legend:
[1] = tested on: human Panc-1 pancreatic tumour cells implanted orthotopically; experiment: Orthotopic model of pancreatic cancer; type: in vivo, female NOD-SCID mice; conditions: 100 mg/kg i.p. once daily in 20% SBECD, 18 consecutive days; p < 0.001
Experimental: Fig. 3 Efficacy of TRX-E-002-1 in an orthotopic model of pancreatic cancer. Female NOD-SCID mice were inoculated directly into the pancreas with PANC-1 human pancreatic epithelioid adenocarcinoma cells transfected with luciferase gene. Tumours were allowed to establish prior to treatment initiation. Animals were dosed with TRX-E-002-1 100 mg/kg i.p. for 18 consecutive days over which time tumour growth was monitored using bioluminescent imaging. Following euthanasia at the predetermined end-point, tumours were excised and weighed. Final tumour (plus pancreas) weights excised at the terminal time point. *p < 0.001

[2] = Second dog pharmacokinetic study, 10 mg/kg intraperitoneal, four dogs; type: in vivo, beagle dogs; conditions: 10 mg/kg i.p.
Experimental: In beagle dogs, plasma concentrations of unconjugated TRX-E-002-1 at early time points (1–4 h’ post-dose) were 76–93% of the total levels (parent + glucuronide). At 8 h, the plasma concentrations of the glucuronide metabolites were similar to those of parent drug. By 24 h’ post-dose, the concentrations of TRX-E-002-1-glucuronide in plasma and gastrointestinal tissues (except colon) were 2–12 times higher than those of the parent drug. The increased levels of TRX-E-0021-glucuronide relative to those of parent drug at 24 h post-dose may reflect slower elimination of the glucuronide metabolites.

HT-29 = experiment: Cytotoxic activity in human cancer cell lines (72 h growth inhibition); type: cell-based; conditions: Colorectal, 72 h incubation, mean ± SEM
Source text: (§1) Activity in pancreatic and colorectal cancer cells and glioblastoma cells was more variable (Table 1).

OVCAR-3 = experiment: as above; type: cell-based; conditions: Ovarian, 72 h incubation, mean ± SEM
Source text: as §1

A549 = experiment: as above; type: cell-based; conditions: Lung, 72 h incubation
Source text: as §1

C4-2B = experiment: as above; type: cell-based; conditions: Prostate, 72 h incubation, mean ± SEM
Source text: as §1

[3] = tested on: micronucleated polychromatic erythrocytes (PCEs) in bone marrow; experiment: Bone marrow micronucleus test; type: in vivo, ARC(S) Swiss mice; conditions: for frequency of micronucleated PCEs: female mice
Experimental: The assays were performed in compliance with GLP regulations.
The bone marrow micronucleus test was the in vivo part of the ICH genotoxicity testing battery and was conducted in ARC(S) Swiss mice. Eight groups of mice (10/sex/group) were given an intraperitoneal injection of vehicle (20% w/v SBECD) or Cantrixil at 50, 200 or 400 mg/kg and were killed 24 or 48 h later. Dimethyl-1,2 benzanthracene was used as the positive control. After preparation of the bone marrow cells, the number of micronucleated polychromatic erythrocytes (PCEs) was determined in 4000 PCEs per animal, and the proportion of PCEs in the total erythrocyte population in bone marrow was calculated from the examination of at least 500 erythrocytes as an index of bone marrow toxicity. […] The proportion of PCEs in the total erythrocyte population was decreased in both sexes at the 200 and 400 mg/kg doses at both kill times. TRX-E-002-1 is therefore considered clastogenic in this system at the described concentrations in vivo [the equivalent 200/400 mg/kg dose in a […] is 16.2 mg/kg (600 mg/m^2)/32.4 mg/kg (1200 mg/m^2) in a 60-kg human].

[4] = tested on: co-cultures which mimic tumour heterogeneity; experiment: Co-culture studies with cisplatin; type: cell-based, human
Source text: (§2) Tumour recurrence post-chemotherapy is caused by the regrowth of the surviving innately drug-resistant cancer stem cells that remain in tumour niches during and post-chemotherapy. The expansion of this chemo-resistant cancer cell population, coupled with upregulation of pro-survival pathways due to drug pressure, is thought to be responsible for the development of chemo-resistant recurrent disease. Further, the inherent heterogeneity of ovarian tumours consists of epithelial cells with varying potential for stemness, and a population of cancer cells with varying mesenchymal status and invasiveness potential. Therefore, to improve survival, a practical approach is the use of novel therapies that can induce cell death in these various subtypes of ovarian cancer cells. TRX-E-002-1 was assessed against ovarian cancer stem cell line OCSC2, characterised by their expression of stem cell markers including CD44 and […] [22]. A major characteristic of these cells is that they are drug resistant, able to form self-renewing spheroids in non-adherent culture, and recreate disseminated drug-resistant ovarian tumours that have a high degree of heterogeneity similar to the clinical profile observed in patients when inoculated into the peritoneal cavity of an immune-compromised mouse.

[5] = Dog 14-day pilot toxicity study with toxicokinetics, intraperitoneal; conditions: both, beagle, dog, plasma
Experimental: For the dog 14-day pilot study, male and female beagle dogs were dosed once daily with intraperitoneal injections of vehicle (1:2 dilutions of 20% SBECD in 0.9% saline) or Cantrixil (10, 30 or 100 mg/kg) for 14 days. The doses were administered via an implanted catheter.

[6] = Excretion study in rats, single intraperitoneal injection; type: in vivo, female Sprague–Dawley rats; conditions: 100 mg/kg i.p.
Experimental: Excretion of TRX-E-002-1 was investigated in female Sprague–Dawley rats that received a single intraperitoneal injection of TRX-E-002-1 100 mg/kg in 20% SBECD. High levels of parent drug were measured in urine up to 24 h after dosing and in faeces up to 48 h after dosing. The glucuronide conjugate, measured as the increase in TRX-E-002-1 following treatment of the samples with beta-glucuronidase, was found at levels similar to those of parent drug in faeces (rectal contents) up to 2 h after dosing, but was barely detectable in urine. Total amounts of parent drug and glucuronide excreted in faeces and urine were not calculated, so that the relative contributions of renal and biliary excretion pathways cannot be evaluated.

[7] = tested on: wild-type human ether-à-go-go-related gene (hERG); experiment: hERG trafficking, surface expression of wild-type hERG; type: cell-based
tumour spheroids = experiment: Degradation of tumour spheroids; type: cell-based, human
Source text: as §2

[8] = tested on: OCSC2 ovarian cancer stem cells; experiment: Western blots of caspase 2 and signalling molecules in OCSC2 cells; type: cell-based, human; conditions: Western blot
Experimental: The role of caspases and intracellular signalling pathways in the anticancer activity of TRX-E-002-1 was investigated in OCSC2 ovarian cancer stem cells. […] TRX-E-002-1 also modulated phosphorylation of intracellular signalling molecules, with decreased levels of pERK (phosphorylated extracellular signal-regulated kinase) and increased levels of phosphorylated c-Jun (p–c-Jun). Activated p–c-Jun levels increased progressively over the 24-h incubation period in response to both concentrations of TRX-E-002-1 tested. […] Increased p–c-Jun and decreased pERK levels were observed following incubation of OCSC2 cells after only 2-h’ exposure, indicating these changes are one of the earliest effects of TRX-E-002-1 treatment.

COc1cc([C@@H]2COc3c(ccc(O)c3C)[C@@H]2c2ccc(O)cc2)cc(OC)c1O [TRX-E-002-1, (+) cis-4-(para-hydroxyphenyl)-7,4′-dihydroxy-3′,5′-dimethoxy-8-methylisoflavan]
terminal pancreatic tumour burden [1]: significantly reduced
TRX-E-002-1 levels by 72 h [2]: close to or below the limit of quantification
Kp at 24 h ([2]; beagle, dog, gastrointestinal tissues, ip, 24 h after dosing, read-out: concentrations in gastrointestinal tissues relative to plasma): ≥ 30
IC50 (HT-29): 1760 ± 1380 nM
IC50 (OVCAR-3): 23 ± 6 nM
IC50 (A549): 58 nM
IC50 (C4-2B): 14 ± 9 nM
clastogenicity, overall conclusion ([3]; at the described concentrations in vivo): clastogenic
proportion of PCEs in the total erythrocyte population ([3]; both sexes, 200 and 400 mg/kg, both kill times): decreased
frequency of micronucleated PCEs ([3]; 200 mg/kg i.p., 24 and 48 h): significantly increased
frequency of micronucleated PCEs ([3]; 400 mg/kg i.p., 24 h): significantly increased
slight increases in frequency of micronucleated PCEs ([3]; male mice, 200 and 400 mg/kg i.p.): not statistically significant
effect on effectiveness of cisplatin [4]: enhanced the effectiveness of cisplatin
half-life ([5]; intraperitoneal): 2 to 2.7 h
Tmax ([5]; ip, 100 mg/kg): 0.5 to 2 h
parent drug in urine ([6]; up to 24 h after dosing): High levels
parent drug in faeces ([6]; up to 48 h after dosing): High levels
surface expression of wild-type hERG [7]: does not affect
effect on tumour spheroids (tumour spheroids): promoted the degradation
levels of inactive caspase 2 ([8]; both concentrations): decreased
levels of phosphorylated c-Jun (p–c-Jun) ([8]; progressive over 24 h): increased
levels of pERK ([8]; seen after 2 h exposure): decreased
